Measured values published in patent US20250204535A1, “Rodenticide” (priority 2022, published 2025).
Where no end group is shown, it is not given here.

Legend:
Assay type in all cases: cell-based
[1] = tested on: Human IPSC-derived cardiomyocytes; assay: Screening synthetic peptides for alterations to human IPSC-derived cardiomyocyte beat rates; conditions: 2 h; dose not stated in the sentence (no increase at 0.1, 1 and 10 μg/ml)
Experimental: The baseline beat rate of neonatal rat and human IPSC-derived cardiomyocytes to be treated with the three synthetic fractions were determined by video microscopy of each well in triplicate using a microscope camera. Average beats/min were calculated from the triplicate readings of three separate wells (n=9). Aliquots of each peptide were taken to treat neonatal rat cardiomyocyte cells at doses of 100, 10, 1 and 0.1 μg/ml. Cells were returned to a humidified incubator at 37° C., 5% CO2 for 2 h. After 2 h the beat rate of the treated cardiomyocyte cells was reassessed using the same method used to obtain the pre-dosing beat data. This process was repeated 24 h after the addition of the synthetic peptides.

[2] = tested on: neonatal rat cardiac fibroblast cells; assay: Screening purified venom fractions for rat cardiac fibroblast toxicity (resazurin); conditions: neonatal rat cardiac fibroblasts
Experimental: Hearts were collected from euthanised 1-2-day old neonatal rat pups and transferred into filter sterilised ice-cold Hanks balanced salt solution (HBSS) containing 2% Pen-strep. Hearts were washed in the HBSS, any non-heart tissue removed and then cut into 1-3 mm pieces and placed in 40 ml filter sterilised, ice cold 0.1% trypsin/HBSS. The heart pieces in trypsin were place in a large ice bucket and incubated overnight at 4° C. on a rocker with gentle agitation to allow the tissue to digest.
The following day, all trypsin was aspirated from the tissue and the tissue transferred evenly into 2 ml Eppendorf tubes. The tissue was then digested further using a 37° C. 1 mg/ml collagenase/HBSS (filter sterilised) solution. For each collagenase digestion, 2 ml of enzyme buffer was added to all Eppendorf tubes and the tubes incubated in a 37° C. heating block for 2 mins with 400 rpm agitation. The supernatant from the first two digestions was discarded. After each of the following digestion steps, the tissue was gently triturated using a pipette to release cells. Once trituration was complete the supernatant was retained, added to a tube containing 10 ml cell culture media and stored on ice.
All cell containing supernatants were filtered through a 250 μm cell strainer to remove any potentially undigested tissue and myocytes separated from cardiac fibroblast by spinning the supernatant at 1800 g for 45 mins through a Percoll gradient. […]
Neonatal rat cardiomyocytes and cardiac fibroblasts were treated with purified venom fractions suspected of being cardiotoxins at doses of 12.5, 7.5, 6 μg/ml, with rat cardiomyocytes being treated at additional concentrations of 3.5, 2.5, 1 and 0.5 μg/ml for 2 hs in a humidified incubator at 37° C., 5% CO2. […] The change in fluorescence of the resazurin dye was monitored over a 5 h timeframe using a BMG Fluostar plate reader. Percent inhibition of both cell types in response to each fraction at each dose were calculated and plotted graphically.

[3] = tested on: Neonatal rat cardiomyocytes; assay: Screening purified venom fractions for alterations to cardiomyocyte beat rates; conditions: for Highest Achieved Fold Increases in Beat Rate: 1 h; for fold increases to beat rate: dose of 6 μg/ml
Experimental: Neonatal rat cardiomyocytes were isolated as via standard protocol and seeded at a density of 100,000 cells/96 well. Once myocyte cultures were beating spontaneously in uniform sheets, they were videoed well-by-well using a microscope camera to determine pre-dose beat rates/min. […] Cells were incubated in each fraction in a humidified incubator at 37° C., 5% CO2 for 1 h. After 1 h videos of the cells were re-recorded to obtain the post-dosing beat rate/minute. Fold changes in beat frequency were calculated for each dosed well pair.

[4] = tested on: rat neonatal cardiomyocyte cells; conditions: 37, 60, 80, 100° C.; 6 μg/ml; rat cardiomyocytes; FIG. 4
Experimental: Thermal stability of the six lead fractions was investigated. Aliquots of each fraction were heated in a heat block to 37° C. (unheated), 60° C., 80° C. and 100° C. before being used to treat rat neonatal cardiomyocyte cells at a dose of 6 μg/ml. Cardiomyocyte toxicity was assessed after 24 hrs of dosing at each temperature against a similar aliquot of each fraction that had been unheated before dosing. After 24 h, 160 μM Resazurin dye was added to all cells and the change in cardiomyocyte cell viability/metabolism monitored every hour up to 5 h post dye addition. An additional measurement was recorded 24 hs after the dye had been added.

[5] = tested on: Human IPSC-derived cardiomyocytes; assay: Screening synthetic peptides for human IPSC-derived cardiomyocyte toxicity (resazurin, 24 h); conditions: 10 μg/ml, toxicity control
Experimental: (§1) Human IPSC-derived cardiomyocytes were purchased from Axol Biosciences and cultured as via their standard methodology. Briefly, cells were recovered from liquid nitrogen storage when required and the cells transferred dropwise into 10 ml of pre-warmed (37° C.) plating media (cardiomyocyte maintenance media+10% FCS+10 μM ROCK inhibitor). Cells were centrifuged at 200×g for 5 mins at room temperature. The supernatant was aspirated from the cell pellet and the cell pellet gently resuspended in 1 ml plating media. Cells were counted using a haemocytometer and trypan blue staining. Cells were plated at a seeding density of 10-20,000 cells/well in fibronectin pre-coated 384 well plates. Cells were incubated at 37° C., 5% CO2 in a humidified incubator overnight before the plating media was removed the following day and replace with fresh maintenance media (No FCS, no ROCK inhibitor). Partial media changes were performed every 2-days until cells formed a single continuous sheet of spontaneously beating cardiomyocytes (7-10 day in culture).
(§2) Rat neonatal cardiomyocytes, Embryonic chick cardiomyocytes, human IPSC-derived cardiomyocytes and rat cardiac fibroblast were cultured. […] After 24 h Resazurin dye was added to each well at a final concentration of 160 μM and the change in fluorescence of the dye monitored and recorded over a 24 h time period.

[6] = tested on: Embryonic chick cardiomyocytes; assay: Screening synthetic peptides for embryonic chick cardiomyocyte toxicity (resazurin, 24 h); conditions: 10 μg/ml, toxicity control
Experimental: Hearts were collected from euthanised 12-13 day old embryonic chicks and transferred into filter sterilized ice-cold hanks balanced salt solution (HBSS) containing 2% Pen-strep. Hearts were washed in the HBSS to remove blood, any non-heart tissue removed and then cut into 1-3 mm pieces and placed in 40 ml filter sterilized, ice cold 0.05% trypsin/HBSS. The heart pieces in trypsin were place in a large ice bucket and incubated for 1 h on a rocker with gentle agitation to allow the tissue to digest.
All trypsin was aspirated from the tissue and discarded, and the tissue transferred evenly into 2 ml Eppendorf tubes. The tissue was then digested further using a 1 mg/ml Collagenase II/0.1% Trypsin/HBSS (filter sterilized) solution. For each digestion, 2 ml of enzyme buffer was added to all Eppendorf tubes and the tubes incubated in a 37° C. heating block for 3 mins with 400 rpm agitation. The supernatant from the first two digestions was discarded. After each of the following digestion steps, the tissue was gently triturated using a Pasteur pipette to release cells. […]
as §2

[7] = tested on: Human IPSC-derived cardiomyocytes; assay: Six lead fractions: toxicity to human IPSC-derived cardiomyocytes (resazurin); conditions: 3.5 μg/ml
Experimental: as §1
Once beating spontaneously, cells were treated with the six lead fractions diluted in maintenance media to final working concentrations of 7.5, 6, 3.5, 2.5 and 1 μg/ml. 30 μl of each fraction dilution was added to triplicate wells of cells and incubated for 2 h at 37° C., 5% CO2 in a humidified incubator. After 2 h, resazurin dye at a final working concentration of 160 μM were added to all wells and the change in fluorescence of the plate monitored over a 5 h timeframe using a BMG Labtech Fluostar plate reader. Percent toxicity was calculated from triplicate wells at each dose and plotted graphically.
Human IPSC derived cardiomyocytes were dosed in triplicate with a serial dilution of each of the six venom fractions (7.5, 6, 3.5, 2.5 and 1 μg/ml) for 2 hs at 37° C., 5% CO2 before resazurin dye was added and the change in colour and fluorescence monitored for the following 5 hrs. Percentage toxicity was calculated for each fraction at all doses and plotted graphically (FIG. 3).

Substance | increase to the beat rate of human cardiomyocytes over pre-dosing beat rate [1] [fold] | doses showing cardiac fibroblast toxicity [2] [µg/mL] | Highest Achieved Fold Increases in Beat Rate ([3]; Dose 1 μg/ml) [fold] | fold increases to beat rate [3] | thermal stability (change in cytotoxic activity after heating) [4] | toxicity against human IPSC-derived cardiomyocytes [5] | toxicity against embryonic chick cardiomyocytes [6] | Highest Achieved Fold Increases in Beat Rate ([3]; Dose 6 μg/ml) [fold] | toxicity in human IPSC-derived cells compared to rodent cardiomyocytes [7]
LKCNKLIPLAYKT [Synthetic peptide 2] | 1.5 | – | – | – | – | – | – | – | –
N.nig_I19_R4 (LKCNKLIPIAYKTCPEGKNLCYKMMLASKKMVPVKRGCIDVCPKDSALVKYVCCSTDRCN) | – | 12.5 | 6.25 | greater than 5.5 fold | no significant changes in the activity | ≈ 90% | ≈ 90% | – | –
N.nka_I18_R4 (LKCNKLIPLAYKTCPAGKDLCYKMYMVSDKTVPVKRGCIDVCPKNSLLVKYECCNTDRCN) | – | – | – | greater than 7 fold | no significant changes in the activity | ≈ 90% | ≈ 90% | 7.00 | reduction in toxicity
